Data taken from patent publication US12128019B1, “Nanocomposite including abscisic acid-loaded collagen nanoparticles” (KING FAISAL UNIVERSITY, priority 2023, dated 2024).
Marks after values point to notes of the source that are not given here.

Tests used:
NHSF cell line = test: In vitro cytotoxicity and cell viability, optical microscope; format: cell-based
Experimental: On the NHSF cell line, the cytotoxic effect of ABA alone and collagen nanoparticles loaded with ABA was investigated with serial double-fold dilutions at an initial dose of 50 μMABA. ABA loaded with collagen nanoparticles was dissolved in ethanol, 0.0264 g/mL stock solutions, which were then serially diluted in a complete growth medium to make the different concentrations used in cytotoxicity assays. The cytotoxicity of each drug against the NHSF cell line was determined using an optical microscope. After a 24-hour incubation period at 37° C., exponentially developing cells were seeded in 96-well flat-bottomed microplates and subjected to drug doses for […].
After exposure of the NHSF cell line to each experimental drug, the reactions were allowed to proceed in an incubator (37° C./5% CO2/95% humidity) for 24 hours and 72 hours of time. Cell viability was recorded through an optical microscope, which is one of the methods generally used to detect cell proliferation or toxicity.
After 24 hours, cell growth rates in different types of ABA and “Marine Collagen Nanoparticles (MCNPs) with ABA were observed under an optical microscope. Cells were also cultured in media containing ethanol in an incubator (37° C./5% CO2/95% humidity) and then observed under an optical microscope.

[1] = tested on: cardiac enzymes; troponin, LDH, and CK; test: Biological cardiac markers in serum, MI rats; format: in vivo; conditions: for Cardiac enzyme levels: serum troponin, LDH, CK
Experimental: (§1) Four groups of rats were injected with adrenaline (2 mg/kg, s.c.) as a single dose for 2 consecutive days (24 h apart) to induce myocardial infarction (MI) while an additional rat group was used as control. Treatment of the rat groups is set forth below.
(§2) Group 1: (Control negative group): rats were injected intraperitoneally (i.p.) with physiological saline 0.2 ml/day for one week.
(§3) Group 2 (MI group): rats were injected with adrenaline (2 mg/kg, s.c.) as a single dose for 2 consecutive days (24 h apart) to induce MI.
(§4) Group 3 (MI+ABA carrying on collagen nanoparticle): rats were injected with adrenaline (2 mg/kg, s.c.) as a single dose for 2 consecutive days (24 h apart) to induce MI and ABA-loaded collagen nanoparticle were administered with adrenaline by oral gavage for one week 1 mg/kg/day of.
(§5) Group 4 (MI+Trimetazidine): rats were injected with adrenaline (2 mg/kg, s.c.) as a single dose for 2 consecutive days (24 h apart) to induce MI and Trimetazidine (Sigma, USA) was administered intraperitoneally with adrenaline at 10 mg/kg/day for one week. Trimetazidine was injected intraperitoneally in the low-dose group (10 mg/kg).
(§6) Group 5 (MI+Collagen nanoparticle) group: rats were injected with adrenaline (2 mg/kg, s.c.) as a single dose for 2 consecutive days (24 h apart) to induce MI Collagen nanoparticle was administered along with adrenaline by oral gavage for one week at 1 mg/kg/day.
(§7) Group 6 (MI+ABA carrying on collagen nanoparticle+Trimetazidine) group: rats were injected with adrenaline (2 mg/kg, s.c.) as a single dose for 2 consecutive days (24 h apart) to induce MI, and ABA-loaded collagen nanoparticle were administered (1 mg/kg/day) by oral gavage and 10 mg/kg/day with Trimetazidine administered intraperitoneally (i.p.) along with adrenaline for one week.

[2] = tested on: adrenaline-induced myocardial infarction (MI); test: Electrocardiogram and haemodynamic assessment in adrenaline-induced MI rats; format: in vivo; conditions: for ECG finding: MI rats, FIGS. 3A-3E; for COP (mean) / HR (mean) / RR (interval) / ST height / carotid flow mean: rats, adrenaline 2 mg/kg s.c. on 2 consecutive days, treatment for one week
Experimental: as §1, §2, §3, §4, §5, §6, §7

[3] = Body and heart weight of experimental rats; format: in vivo; conditions: MI rats, treatment for one week
Experimental: as §1, §2, §3, §4, §5
Group 5 (MI+Collagen nanoparticle) group: rats were injected with adrenaline (2 mg/kg, s.c.) as a single dose for 2 consecutive days (24 h apart) to induce MI Collagen nanoparticle was administered along with adrenaline by oral gavage for one week at 1 mg/kg/day. […]

[4] = tested on: oxidative stress markers and antioxidant enzymes; test: Oxidative stress markers and antioxidant enzymes, cardiac contents, MI rats; format: in vivo; conditions: treatment for one week
Experimental: as §1, §2, §3, §4, §5, §6, §7
All treatment drugs improved the marker levels. NO level increased due to adrenaline administration because the role of NO in cardiovascular diseases is complex and controversial.

CC1=CC(=O)CC(C)(C)[C@@]1(O)/C=C/C(C)=C\C(=O)O [ABA, abscisic acid]
cell proliferation (NHSF cell line; HSFs culture, after 72 hours): marked increase of proliferation | cell morphology (NHSF cell line; NHSF cell line, after 24 hours): normal morphology of branch- and spindle-shapes

CC1=CC(=O)CC(C)(C)C1(O)/C=C/C(C)=C\C(=O)O (centres unmarked) [Extracted ABA, abscisic acid]
Cardiac enzyme levels [1]: decreased toward normal | ECG finding [2]: still showed pathological changes but with the ST segment nearer to the isoelectric line | elevation of COP ([2]; compared to the MI group): 73% | elevation of SV ([2]; compared to the MI group): 93% | elevation of carotid blood flow ([2]; compared to the MI group): 70% | COP (mean) [2]: 18.57 ± 1.0^b ml/min | HR (mean) [2]: 247.4 ± 9.69^cd b/min | RR (interval) [2]: 0.73 ± 0.03^b sec | ST height [2]: 42.98 ± 4.05^b mm | carotid flow mean [2]: 18.06 ± 1.15^b ml/min

CC1=CC(=O)CC(C)(C)[C@@]1(O)/C=C/C(C)=C\C(=O)O [Standard ABA, abscisic acid]
Cardiac enzyme levels [1]: decreased toward normal | ECG finding [2]: still showed pathological changes but with the ST segment nearer to the isoelectric line | elevation of COP ([2]; compared to the MI group): 63% | elevation of SV ([2]; compared to the MI group): 73% | elevation of carotid blood flow ([2]; compared to the MI group): 63% | COP (mean) [2]: 17.52 ± 0.1^b ml/min | HR (mean) [2]: 255.77 ± 1.23^c b/min | RR (interval) [2]: 0.7 ± 0.003^c sec | ST height [2]: 39.33 ± 2.15^b mm | carotid flow mean [2]: 17.4 ± 0.16^b ml/min

COc1ccc(CN2CCNCC2)c(OC)c1OC [Trimetazidine]
CK-MB ([1]; serum, treatment for one week): 1.13 ± 0.02^bc U/L | LDH ([1]; serum, treatment for one week): 246.67 ± 12.47^d U/L | Troponin ([1]; serum, treatment for one week): 1.34 ± 0.03^d ng/ml | Bwt ([3]; body weight): 188 ± 1.22^bcd | Hwt ([3]; heart weight): 1.39 ± 0.03^cd | ECG finding [2]: almost normal electrocardiogramith little to no elevation in the ST-segment | decrease in the ST segment elevation ([2]; compared to the MI group): ~46% | COP (mean) [2]: 23.9 ± 0.07^a ml/min | HR (mean) [2]: 254.17 ± 1.89^c b/min | RR (interval) [2]: 0.75 ± 0.02^a sec | ST height [2]: 27.55 ± 0.49^c mm | carotid flow mean [2]: 23.75 ± 0.05^a ml/min | Catalase ([4]; cardiac contents): 132.5 ± 36.08^ab U/g protein | GSH ([4]; cardiac contents): 19.59 ± 2.28ª μmol/g protein | MDA ([4]; cardiac contents): 4.4 ± 0.26^cde μmol/g protein | NO [4]: 52.22 ± 0^bc μM/g protein
